According to patent US10857167B2, “Use of oligosaccharide compositions to enhance weight gain” (Children's Hospital Medical Center, priority 2015, dated 2020):
Entries after “also recorded” stand apart in the source; their conditions may differ.

Tests used:
[1] = tested on: mouse model of adaptation following extensive ileocecal resection (ICR); assay: Weight change after ileocecal resection (ICR) in mice; type: in vivo; details: for weight / weight gain compared to control after ICR: 56 day experiment, on and beyond postoperative day 21
Text: A mouse model of adaptation following intestinal resection was previously reported. Under the aid of an operating microscope and utilizing sedation with 2% isoflurane, a midline incision was made […] and the bowel was eviscerated (FIG. 7). […] Intestinal continuity was restored by end-to-end anastomosis and the abdomen of mice was closed (FIG. 9). The mice received one dose of intraperitoneal broad-spectrum antibiotics. In particular, C57 Black 6 mice of 8 to 10 weeks in age were subjected to ileocecal resection (FIG. 11). 5 animals were carried to post-operative day 56 in the usual fashion. Seven animals were carried to the same time point but supplemented with 2'Fucosyllactose. 2'FL was added to both liquid diet (LD) and standard diet (SD) with water to achieve a final concentration of 21⁄2 grams per liter. All animals were weighed once daily during the first week then once every other day thereafter. Male C57BL/6 mice (Jackson Labs, Me.) of 8 to 10 weeks of age were weighed and started on an exclusive polymeric formula diet one day prior to experiment start (Jevity 1 Cal, Abbott Nutrition, Columbus, Ohio). All mice were administered one dose of intraperitoneal Zosyn (at approximately 100 mg/kg) on experiment day 0. All animals were grouped by operation status and subgrouped into treatment and control arms (Table 4). Liquid diet was refreshed and weights obtained daily for 7 days then all mice were transitioned to a standard chow diet with access to water. Animals in both groups were weighed every other day and taken to 21 or 56 days for experiment completion. All animal studies were approved by the Cincinnati Children's Hospital Medical Center Institutional Animal Care and Use Committee. Non-operated animals were maintained as described above. Operated animals were taken to the operating room on experimental day 0 and underwent ileocecal resection (ICR) as previously described in […] et al. (2007) American journal of physiology Gastrointestinal and liver physiology 293: G1013-1022. Under the aid of an operating microscope and utilizing sedation with 2% isoflurane, a midline incision was made and the bowel eviscerated. The ileocecal junction was identified and approximately 12 cm of ileum and cecum were resected. Resected small bowel tissue and luminal contents were collected as described below. Intestinal continuity was restored by end-to-end anastomosis and the abdomen was closed (FIG. 28). ICR mice were then assigned to control or treatment subgroups, were administered analgesia with subcutaneous buprenorphine (0.05-0.1 mg/kg) and recovered overnight in a standard neonatal incubator warmed to approximately 38 degrees Celsius. Control (non-operated) animals were maintained as described above. Beginning on experiment day 0, treatment animals were supplemented with 2'-Fucosyllactose. 2'-FL was added to formula then water to a final concentration of 2.5 grams per liter. Formula was refreshed daily and water refreshed every other day. […] Intestinal length was compared across groups using the Wilcoxon rank-sum test as values were not normally distributed. Histologic count data was averaged per mouse across two samples and compared by the Wilcoxon rank-sum test. Weight data was analyzed using Stata version 13.0 (StataCorp LP, TX). Remaining morphometric and histologic data were analyzed using GraphPad Prism version 5 (GraphPad Software Inc, CA).

[2] = tested on: TFF3, MUC2, DEFA5, ZO-1, HSPA1A, Reg3b, Reg3g; assay: Expression of genes relative to β-Actin in pre-operative and post-ICR mice; type: in vivo, mouse; details: post-ICR with 2′ FL supplementation

Q: `C[C@@H]1O[C@@H](O[C@H]2[C@H](O[C@H]3[C@H](O)[C@@H](O)C(O)O[C@@H]3CO)O[C@H](CO)[C@H](O)[C@@H]2O)[C@@H](O)[C@H](O)[C@@H]1O` (stereo partly shown) [2′-FL, 2′-fucosyllactose] was tested. Which “time to return to preoperative weight after ICR” value ([1]; 2′-FL supplemented ICR subgroup) did it give?
A: Its value is 3 to 4 weeks.

Q: And the “body weight lost during the first postoperative week” value ([1]; 2′-FL supplemented ICR subgroup, 2.5 grams per liter in formula then water)?
A: The value was “approximately 10%”.

Q: And the “weight / weight gain compared to control after ICR” value [1]?
A: The value was “improved growth; also recorded: increased weight gain; also recorded: gained more weight”.

Q: What about the “weight / weight gain compared to control after ICR” value ([1]; listed as 2′FL) of the same compound?
A: Its value is “improved late-term weight-gain profile”.

Q: What about the “weight difference between control and 2′-FL supplemented subgroups” value ([1]; animals taken to harvest at postoperative day 21) of the same compound?
A: Its value is “no significant weight difference”.

Q: What about the “percent of preoperative body weight achieved” value ([1]; at 56 days after ICR, 2′-FL supplemented ICR subgroup) of the same compound?
A: The value was 110%.

Q: What about the “expression of genes TFF3, DEFA5, HSPA1A, Reg3b, and Reg3g relative to β-Actin” value [2] of the same compound?
A: The value was “increased expression”.
